Reference: patent US9475840B2, “Protease-resistant compounds useful as shuttles through the blood-brain barrier and shuttle-cargo constructs” (UNIVERSITAT DE BARCELONA, priority 2012, dated 2016)
Read-outs that look alike come from different tables or passages of the source. Where a SMILES comes first, the peptide text is derived from it. [ ]: non-standard residue; d: D form. Quantum Dot = not defined here

Key:
[1] = Stability of the shuttle in human serum; conditions: for half-life: human, serum
Procedure: At a range of times, 50 μL aliquots were collected to which methanol was added in order to precipitate the serum proteins. The samples were centrifuged, filtered and analysed by HPLC to determine the degree of degradation of the BBB-shuttle

[2] = Transport across the BBB, in vitro co-culture cell assay (transwell); conditions: pH 7.4
Source text: (§1) The evaluation method chosen to test the compounds of formula (I) and (II) of the invention was a cell-based assay consisting of a co-culture of brain endothelial cells and astrocytes, which allows to evaluate or to predict the transport of compounds through the BBB. […] Under these conditions endothelial cells are able to reach the confluence mimicking the BBB. […] Is commonly used model for permeation studies and toxicity of compounds across the BBB.
(§2) The co-culture assay was used to determine the capacity of the constructs cargo-shuttle to cross the BBB. […] The permeability tests were performed in Ringer-HEPES buffer at pH 7.4. The compound of interest was dissolved in the buffer to the desired concentration.
(§3) Once the endothelial cells were confluent on the filters (transwells) these were washed with Ringer-HEPES buffer. The acceptor well was filled with 800 μL of Ringer-HEPES buffer and the donor well with 200 μL of the solution of the compound to be studied. The system was incubated at 37° C. and 5% CO2 for 2 h. After that time the content of the acceptor and donor compartments were analyzed by HPLC, ICP or fluorescence measurements (depending on cargo anchored to the shuttle). Transport was also confirmed by mass spectrometry MALDI-TOF.
(§4) The apparent permeability was calculated using the following equation: Papp=(dQ/dt)*(1/A)*(1/C0)(cm/s)
(§5) Where (dQ/dt) is the amount of compound present in the compartment acceptor function of time (nmol/s). A is the area of the filter (cm2) and C0 is the initial concentration of the compound applied in the donor compartment (nmol/mL).
(§6) The values of permeability equal to or higher than 1×10-6 cm/s are considered exceptionally good, and values equal to or higher than 0.1×10-6 cm/s are considered good.

[3] = tested on: co-culture of brain endothelial cells and astrocytes; experiment: as above; conditions: — = not detected in acceptor compartment; for Transport (%) (2 h): percentage of transport after a 2 hours assay; for Papp (×10^6) cm/s: apparent permeability, 2 h at 37° C., Ringer-HEPES buffer pH 7.4, triplicate, 50 μM or 0.75 nM (particles)
Source text: as §1, §2, §3, §4, §5, §6

[4] = tested on: co-culture of brain endothelial cells and astrocytes
Source text: as §1, §2, §3, §4, §5, §6

Papp [2]	Transport (%) (2 h) [3]	Compound	Papp (×10^6) cm/s [3]	further results
8.46 ± 2.1 ×10⁻⁶ cm/s	10.1 ± 1.3%	CSCC[C@@H](NC(=O)[C@@H](Cc1c[nH]c2ccccc12)NC(=O)[C@@H](CO)NC(=O)[C@H]1CCCN1C(=O)[C@H](NC(=O)[C@@H](Cc1c[nH]c2ccccc12)NC(=O)[C@H]1CCCN1C(=O)[C@@H](N)Cc1ccc(O)c(O)c1)C(C)C)C(=O)N1CCC[C@@H]1C(=O)N1CCC[C@@H]1C(=O)N[C@H](CCCNC(=N)N)C(=O)N[C@H](Cc1c[nH]cn1)C(=O)N[C@@H](C(N)=O)[C@H](C)O [Example 8, L-dopa-D-Pro-D-Trp-D-Val-D-Pro-D-Ser-D-Trp-D-Met-D-Pro-D-Pro-D-Arg-D-His-D-Thr-NH2] (HELM PEPTIDE1{[N[C@@H](Cc1ccc(O)c(O)c1)C(=O)[*:2]].[dP].[dW].[dV].[dP].[dS].[dW].[dM].[dP].[dP].[dR].[dH].[dT].[am]}$$$$V2.0)		
16.2 ± 1.3 ×10⁻⁶ cm/s	17.1 ± 2.6%	CSCC[C@@H](NC(=O)[C@@H](Cc1c[nH]c2ccccc12)NC(=O)[C@@H](CO)NC(=O)[C@H]1CCCN1C(=O)[C@H](NC(=O)[C@@H](Cc1c[nH]c2ccccc12)NC(=O)[C@H]1CCCN1C(=O)c1ccc2c(c1)C(=O)OC21c2ccc(O)cc2Oc2cc(O)ccc21)C(C)C)C(=O)N1CCC[C@@H]1C(=O)N1CCC[C@@H]1C(=O)N[C@H](CCCNC(=N)N)C(=O)N[C@H](Cc1c[nH]cn1)C(=O)N[C@@H](C(N)=O)[C@H](C)O [Example 9, 5(6)-Carboxyfluorescein-D-Pro-D-Trp-D-Val-D-Pro-D-Ser-D-Trp-D-Met-D-Pro-D-Pro-D-Arg-D-His-D-Thr-NH2] (HELM PEPTIDE1{[O=C1OC2(c3ccc(O)cc3Oc3cc(O)ccc32)c2ccc(C(=O)[*:2])cc21].[dP].[dW].[dV].[dP].[dS].[dW].[dM].[dP].[dP].[dR].[dH].[dT].[am]}$$$$V2.0)		
0.14 ± 0.01 ×10⁻⁶ cm/s	0.2 ± 0.04%	CSCC[C@@H](NC(=O)[C@@H](Cc1c[nH]c2ccccc12)NC(=O)[C@@H](CO)NC(=O)[C@H]1CCCN1C(=O)[C@H](NC(=O)[C@@H](Cc1c[nH]c2ccccc12)NC(=O)[C@H]1CCCN1C(=O)[C@@H](CCCCN)NC(=O)[C@@H](CCCCN)NC(=O)[C@@H](CC(C)C)NC(=O)[C@H](NC(=O)[C@@H](Cc1ccc2ccccc2c1)NC(=O)[C@@H](Cc1ccccc1)N(C)C(=O)[C@@H](C)N)C(C)C)C(C)C)C(=O)N1CCC[C@@H]1C(=O)N1CCC[C@@H]1C(=O)N[C@H](CCCNC(=N)N)C(=O)N[C@H](Cc1c[nH]cn1)C(=O)N[C@@H](C(N)=O)[C@H](C)O [Example 12, H-D-Ala-D-NMePhe-D-Nal(2)-D-Val-D-Leu-D-Lys-D-Lys-D-Pro-D-Trp-D-Val-D-Pro-D-Ser-D-Trp-D-Met-D-Pro-D-Pro-D-Arg-D-His-D-Thr-NH2] (HELM PEPTIDE1{[dA].[CN([C@H](Cc1ccccc1)C(=O)[*:2])[*:1]].[O=C([C@@H](Cc1ccc2ccccc2c1)N[*:1])[*:2]].[dV].[dL].[dK].[dK].[dP].[dW].[dV].[dP].[dS].[dW].[dM].[dP].[dP].[dR].[dH].[dT].[am]}$$$$V2.0)		
9.9 ± 1.6 ×10⁻⁶ cm/s	11.7 ± 6.4%	CSCC[C@@H](NC(=O)[C@H]1CCCN1C(=O)[C@H]1CCCN1C(=O)[C@@H](CCCNC(=N)N)NC(=O)[C@@H](Cc1c[nH]cn1)NC(=O)[C@H](N)[C@H](C)O)C(=O)N[C@H](Cc1c[nH]c2ccccc12)C(=O)N[C@H](CO)C(=O)N1CCC[C@@H]1C(=O)N[C@@H](C(=O)N[C@H](Cc1c[nH]c2ccccc12)C(=O)N1CCC[C@@H]1C(N)=O)C(C)C [compound 2, H-D-Thr-D-His-D-Arg-D-Pro-D-Pro-D-Met-D-Trp-D-Ser-D-Pro-D-Val-D-Trp-D-Pro-NH2, reference compound] (HELM PEPTIDE1{[dT].[dH].[dR].[dP].[dP].[dM].[dW].[dS].[dP].[dV].[dW].[dP].[am]}$$$$V2.0)		half-life [1]: > 1440 min
12.5 ± 5.2 ×10⁻⁶ cm/s	14.9 ± 2.5%	H-THRPPMWSPVWP-NH2 [compound 1, H-L-Thr-L-His-L-Arg-L-Pro-L-Pro-L-Met-L-Trp-L-Ser-L-Pro-L-Val-L-Trp-L-Pro-NH2, reference compound]		Degradation / half-life time in human serum (in words) ([1]; 150 μM, 37° C., 90% human serum): rapidly degraded; half-life [1]: < 60 min

The remaining lines, values behind:

Compound	Papp [2]	Transport (%) (2 h) [3]	Papp (×10^6) cm/s [3]	further results
CSCC[C@@H](NC(=O)[C@@H](Cc1c[nH]c2ccccc12)NC(=O)[C@@H](CO)NC(=O)[C@H]1CCCN1C(=O)[C@H](NC(=O)[C@@H](Cc1c[nH]c2ccccc12)NC(=O)[C@H]1CCCN1)C(C)C)C(=O)N1CCC[C@@H]1C(=O)N1CCC[C@@H]1C(=O)N[C@H](CCCNC(=N)N)C(=O)N[C@H](Cc1c[nH]cn1)C(=O)N[C@@H](C(N)=O)[C@H](C)O [Example 1, H-D-Pro-D-Trp-D-Val-D-Pro-D-Ser-D-Trp-D-Met-D-Pro-D-Pro-D-Arg-D-His-D-Thr-NH2] (HELM PEPTIDE1{[dP].[dW].[dV].[dP].[dS].[dW].[dM].[dP].[dP].[dR].[dH].[dT].[am]}$$$$V2.0)	21.4 ± 2.1 ×10⁻⁶ cm/s	25.1 ± 3%		half-life [1]: > 1440 min
Antibody Avastin partially reduced and trapped with Ellman's reagent: bevacizumab (Avastin) antibody cargo, partially reduced and trapped with Ellman's reagent		0.064 ± 0.006%	0.054 ± 0.005 (×10^6) cm/s	
H-Gly-D-Pro-D-Trp-D-Val-D-Pro-D-Ser-D-Trp-D-Met-D-Pro-D-Pro-D-Arg-D-His-D-Thr-NH2 [Example 2]				Transport (%) (2 h) [4]: 22.3 ± 2.6%; Papp (×10^6) cm/s ([4]; pH 7.4): 19.4 ± 1.8 (×10^6) cm/s
Quantum Dot-Gly-D-Pro-D-Trp-D-Val-D-Pro-D-Ser-D-Trp-D-Met-D-Pro-D-Pro-D-Arg-D-His-D-Thr-NH2 ({Quantum Dot}-G[dP][dW][dV][dP][dS][dW][dM][dP][dP][dR][dH][dT]-NH2; reading uncertain; also: quantum dot nanoparticle conjugate, printed as Quantum Dot-Gly-D-Pro-D-Trp-D-Val-D-Pro-D-Ser-D-Trp-D-Met-D-Pro-D-Pro-D-Arg-D-His-D-Thr-NH2) [Example 10]		0.31 ± 0.02%	0.27 ± 0.03 (×10^6) cm/s	
Rhodamine b-L-Lys(Antibody)-D-Pro-D-Trp-D-Val-D-Pro-D-Ser-D-Trp-D-Met-D-Pro-D-Pro-D-Arg-D-His-D-Thr-NH2 [Example 17]			0.16 ± 0.10 (×10^6) cm/s	
Rhodamine b-L-Lys(Antibody)-D-Pro-D-Trp-D-Val-D-Pro-D-Ser-D-Trp-D-Met-D-Pro-D-Pro-D-Arg-D-His-D-Thr-NH2 [Example 18]			0.18 ± 0.05 (×10^6) cm/s	
Rhodamine b-L-Lys(Antibody)-D-Pro-D-Trp-D-Val-D-Pro-D-Ser-D-Trp-D-Met-D-Pro-D-Pro-D-Arg-D-His-D-Thr-NH2 [Example 20]			0.36 ± 019 (×10^6) cm/s	
nanoparticle superparamagnetic iron oxide (SPION)-Gly-D-Pro-D-Trp-D-Val-D-Pro-D-Ser-D-Trp-D-Met-D-Pro-D-Pro-D-Arg-D-His-D-Thr-NH2 ({SPION}-G[dP][dW][dV][dP][dS][dW][dM][dP][dP][dR][dH][dT]-NH2) [Example 11]		0.22 ± 0.05%	0.19 ± 0.07 (×10^6) cm/s	
